Test results published in US6858646B2, “Neuroprotective composition and uses thereof” (Universite du Quebec a Montreal, priority 1999, dated 2005).

Key:
[1] = system: P19 neurons; format: cell-based; conditions: for Protection against oxidative stress caused by hydrogen peroxide: assayed at 0.5× suboptimal concentration, 0 to 10 mM H2O2, 30 min
Method: Culture and neuronal differentiation of P19 embryonal carcinoma cells were done according to the procedures of Jeannotte et al. (1997) with the following modifications for microscale adaptation of cultures to 96-well plates: cell aggregates obtained at day 4 of the treatment of P19 cells with retinoic acid were trypsinized with 0.025% trypsin-1 mM EDTA in PBS and subjected to mechanical passages to obtain individual cells which were seeded in gelatin-precoated microwells at a density of 0.7-1×10^5 cells per well. The newly seeded cells (neurons) were cultured in supplemented Neurobasal medium (Neurobasal® containing 0.5 mM L-glutamine and 0.5% B27 supplement) until exposure to oxidative conditions at day 7. Because this defined serum-free medium sustains growth of P19 neurons (Yao et al., 1995) but discourages the proliferation of fibroblasts, another cell derivative of the differentiation of P19 cells with retinoic acid (McBurney, 1993; Jeannotte et al., 1997), the cell populations in microwells were composed mostly of neurons (≦95%).
The prooxidant systems tested with P19 neurons were XA/XAO, H2O2, and H2O2/Fe^+2. Before neurons were exposed to either one of these systems, they were carefully washed with PBS and then incubated at 37° C., in an atmosphere of 95% ambient air and 5% CO2, and in the specific conditions of each system, as follows: i) from 0 to 90 min in the presence of PBS containing 500 μM XA and 50 mU/ml XAO, with the enzyme added last to start the reaction; ii) for 30 min in the presence of PBS containing 0 to 10 mM H2O2 with peroxide added last; and iii) for 30 min in the presence of PBS containing 0 to 10 mM H2O2 plus 50 μM FeCl2, with peroxide added last. Conditions were initially taken from Cini et al. (1994) for XA/XAO, from Desagher et al. (1996) for H2O2, and from Takemura et al. (1994) for H2O2/Fe^+2 systems respectively, and adapted to produce dose- or time-dependent cell mortality in P19 neurons. The first studies done with the H2O2/Fe^2+ system included the addition of 500 μM ascorbic acid; however, since responses of P19 neurons were similar whether or not ascorbic acid was present, this vitamin was omitted in subsequent experiments.
When TRIAD or its components were tested for their antioxidant action, they were administered to cells just prior the addition of XAO or H2O2. After incubation of cells under oxidative conditions, the prooxidant medium was removed and replaced with 200 μl of supplemented Neurobasal-minus AO (Neurobasal® containing L-glutamine and the B27-minus AO supplement). B27-minus AO is a version of B27 supplement sold by Gibco-BRL from which normally present antioxidants (AO=vitamin E, catalase, SOD and GSH) have been removed. Cells were incubated in this Neurobasal-minus AO medium for 16 h, at 37° C., 5% CO2, and for a further 7 h in the same medium but in the presence of Alamar Blue for viability measurement.
(§1) Fifteen (15) μl Alamar Blue was added to the culture medium of each well (200 μl) and incubation resumed for 7 h at 37° C., 5% CO2. A 180-μl aliquot of each culture medium was read by fluorescence using a wavelength of 544 nm for excitation and of 590 nm for emission; fluorescence increases upon reduction of the dye by metabolic activity of viable cells. Fluorescence determinations were done with a fluorimeter adapted to read microplates. Viability is reported as %, comparing the fluorescence units obtained for cells exposed to oxidative conditions to those of control (non-exposed) cells.

[2] = system: P19 neurons; assay: Protection of P19 neurons exposed to XA/XAO mediated oxidative stress (Alamar Blue viability); format: cell-based; conditions: 1× concentration
Method: Culture and neuronal differentiation of P19 embryonal carcinoma cells were done according to the procedures of Jeannotte et al. (1997) with the following modifications for microscale adaptation of cultures to 96-well plates: cell aggregates obtained at day 4 of the treatment of P19 cells with retinoic acid were trypsinized with 0.025% trypsin-1 mM EDTA in PBS and subjected to mechanical passages to obtain individual cells which were seeded in gelatin-precoated microwells at a density of 0.7-1×10^5 cells per well. […]
Another protocol was also tested for XA/XAO system to generate a milder oxidative stress. […] At end of stress, PBS was changed for Neurobasal-minus AO medium and cells were incubated for 7 h, readily in the presence of Alamar Blue, for viability measurement.
as §1

[3] = In vitro antioxidant capacity: inhibition of DPD oxidation by H2O2, in absence of cells
Method: Oxidation of N,N-diethyl-p-phenylenediamine (DPD) by a prooxidant system was used as a general reporter of the amount of ROS generated by that system (Anonymous, 1985; Chahine et al., 1991). Antioxidant capacity of preparations of TRIAD (or of its components) was defined as the ability to inhibit the oxidation of DPD by prooxidants.
To estimate the antioxidant capacity of TRIAD preparations in the prooxidant conditions used with P19 neurons, DPD was added to a final concentration of 32 mM to 200 μl of each prooxidant system described above (see section 2.4) and incubated for the times tested with the cells. At the end of incubation, the amount of oxidized DPD was determined at 560 nm using a spectrophotometer adapted to microscale measurement.

Row | SMILES | LD50 ([1]; mouse, 30 min) [mM] | Cell mortality ([1]; mouse, 30 min, 1 mM) | Protection against neuronal death caused by XA/XAO ([2]; 500 μM XA, 50 mU/mL XAO, 0-90 min) | Protective effect against XA/XAO ([2]; from 30 to 90 min of incubation with XA/XAO) | Contribution to TRIAD protective effect ([1]; H2O2/Fe2+ prooxidant system) | Protection against oxidative stress caused by hydrogen peroxide [1] | Share of the protective effect of TRIAD ([1]; at low hydrogen peroxide concentrations) | Contribution to the neuroprotective action of TRIAD against H2O2-induced injury ([1]; cultured neurons) [%] | Inhibition of the oxidation of DPD by H2O2 [3]
1 | OO [hydrogen peroxide, reference compound] | 0.3 | approximately 70% |  |  |  |  |  |  | 
2 | CC(=O)C(=O)[O-].[Na+] [pyruvate, sodium pyruvate] |  |  | protected only slightly less than TRIAD 1× | remained stable | contributed for most of TRIAD protective effect | substantial and stable protection up to 10 mM H2O2 | half | 60 | substantial although not total antioxidant effect
3 | Cc1c(C)c2c(c(C)c1O)CC[C@@](C)(CCC[C@H](C)CCC[C@H](C)CCCC(C)C)O2 [vitamin E, α-tocopherol] |  |  |  |  |  | did not provide protection |  |  | 
